US20030180349A1, “Respiratory infection prevention and treatment with terpene-containing compositions” (priority 2001, published 2003)

Key:
[1] = Solution levels of terpenes in water (no surfactant, high-shear blending); type: physicochemical; settings: for Solution levels for various terpenes: Level: maximum level solubilized in water without surfactant
Mycoplasma iowae = experiment: Effect of citral on growth of Mycoplasma iowae (color changing units); type: cell-based
Experimental: M. iowae is a known avian respiratory disease agent. […] Mycoplasma iowae were incubated at 37° C. in R2 (Chen, T. A., J. M. Wells, and C. H. Liao. 1982. Cultivation in vitro: spiroplasmas, plant mycoplasmas, and other fastidious, walled prokaryotes. pp. 417-446. in Phytopathogenic prokaryotes, V. 2, M. S. Mount and G. H. Lacy (ed.), Academic Press, New York) broth. One to 2-day old cultures were observed under a dark-field microscope to ensure cells were in filamentous form before treatment. Cell suspensions were vortexed to ensure they were evenly mixed before and an aliquot of 0.5 mL was dispensed into a sterile tube. […] The treated cell suspension was incubated for 24 hrs before the color changing units (CCUs) were determined by a 10-fold serial dilution in fresh R2. All treatments were duplicated. […] All culture tubes were incubated for 15 days before final readings were taken. A comparison was made of the effect of 24-hr and 48-hr treatment times. The CCUs were determined by taking treated cell suspension from the same treated tube 24 hrs or 48 hrs after treatment.

erythrocytes = type: cell-based, Human
Experimental: These mixtures were incubated for 20 minutes.

E. coli = settings: cited from earlier work
[2] = Break down / loss of potency of terpenes in the presence of oxygen; type: physicochemical; settings: 500 ppm solution
Description: Terpenes will break down in the presence of oxygen. Citral, for example, is an aldehyde and will decay (oxygenate) over a period of days.

H. pylori = settings: cited from earlier work
Mycoplasma pneumoniae = experiment: In vitro effectiveness against Mycoplasma pneumoniae (color change); type: cell-based; settings: 40 hours treatment
Experimental: Terpene beta-ionone or L-carvone was first mixed well with Tween® 80 to have a final Tween® 80 concentration of 5%. This mixture was then used to make concentrations of 2500 ppm in sterile phosphate buffer saline (PBS) by blending the mixture in PBS for 40 seconds. This 2500 ppm solution was then diluted to 500 ppm, 250 ppm, and 125 ppm with PBS.
PBS containing 25 ppm Tween® 80 or PBS alone was used to treat cells suspension as controls.
A log phase (2-3-day old) culture of Mycoplasma pneumoniae was mixed with each of the above three concentrations of terpene at 1:1 (volume) ratio (in this case, 1 mL of cell suspension was added to 1 mL of terpene).
The culture and terpene mixture was then incubated at 37° C. for 40 hours. After 40 hours of treatment, 10-fold serial dilution was performed to 10 (−10) by first taking 0.1 mL of the treated culture suspension was added into 0.9 mL of fresh SP4 (Whitcomb (1983); SP4 media is commercially available (Remel, Lenexa, Kans., USA)). All the tubes were then incubated at 37° C., and a color change of the medium was used for the indication of the cells that either were killed or survived from the treatment. Color change was from red to yellow because Mycoplasma pneumoniae produces acid during its growth.

[3] = 62.5 ppm (5% Tween 80, PBS), three days after 10-fold dilution
[4] = 62.5 ppm, 6 days after 10-fold dilution
[5] = 125 ppm (5% Tween 80, PBS), three days after 10-fold dilution
[6] = 125 ppm, 6 days after 10-fold dilution
[7] = 250 ppm (5% Tween 80, PBS), three days after 10-fold dilution
[8] = 250 ppm, 6 days after 10-fold dilution

| Compound | Solution levels for various terpenes: Level [1] [ppm] | color change of medium / killing effect (Mycoplasma pneumoniae; [3]) | color change of medium / killing effect (Mycoplasma pneumoniae; [4]) | color change of medium / killing effect (Mycoplasma pneumoniae; [5]) | color change of medium / killing effect (Mycoplasma pneumoniae; [6]) | color change of medium / killing effect (Mycoplasma pneumoniae; [7]) | color change of medium / killing effect (Mycoplasma pneumoniae; [8]) | Concentration at which erythrocytes lyse (erythrocytes) [ppm] | other results |
| --- | --- | --- | --- | --- | --- | --- | --- | --- | --- |
| C=C(C)C1CC=C(C)C(=O)C1 (stereo not drawn) [Carvone] | 500 |  |  |  |  |  |  |  |  |
| CC(C)=CCCC(C)=CC=O [Citral, 3,7-dimethyl-2,6-octadien-1-al] |  |  |  |  |  |  |  |  | color changing units after treatment (Mycoplasma iowae; 62.5 ppm, 24 hr (Table 4)): 10^6 CCUs; color changing units after treatment (Mycoplasma iowae; 62.5 ppm, 24 hrs (Table 3)): 10^8 CCUs; color changing units after treatment (Mycoplasma iowae; 62.5 ppm, 48 hr (Table 4)): 10^6 CCUs; color changing units after treatment (Mycoplasma iowae; 125 ppm, 24 hr (Table 4)): 10^7 CCUs; color changing units after treatment (Mycoplasma iowae; 125 ppm, 24 hrs (Table 3)): 10^8 CCUs; color changing units after treatment (Mycoplasma iowae; 125 ppm, 48 hr (Table 4)): 10^6 CCUs; color changing units after treatment (Mycoplasma iowae; 250 ppm, 24 hr (Table 4)): 10^5 CCUs; color changing units after treatment (Mycoplasma iowae; 250 ppm, 24 hrs (Table 3)): 10^7 CCUs; color changing units after treatment (Mycoplasma iowae; 250 ppm, 48 hr (Table 4)): 10^4 CCUs; concentration that will lyse human erythrocytes (erythrocytes; human, 20 min): about 1000 ppm; citral concentration with bactericidal effect (E. coli): 0.08%; citral in growth media that reduced the concentration of E. coli (E. coli): more than 0.01%; stable suspension can be formed up to ([1]; suspension): about 2500 ppm; time in which solution loses half its potency [2]: 2-3 weeks |
| CC(C)=CCC/C(C)=C/CO [Geraniol] | 500 |  |  |  |  |  |  |  | concentration that inhibited the growth of H. pylori in vitro (H. pylori): 2 mg/L |
| CC(=O)/C=C/C1=C(C)CCCC1(C)C [b-ionone] | 500 | did not change color at all | only the first tube | did not change color at all | may have completely killed all cells | did not change color at all | may have completely killed all cells | 2000 |  |
| L-carvone |  | no killing effects | second and third tube | no killing effects | second and third tube | no killing effects | second and third tube | 250 |  |
| Terpeniol | 500 |  |  |  |  |  |  |  |  |
